From the NIST ThermoML archive (doi:10.1021/je050348f)

Test: osmotic coefficient (dimensionless); mn = molality of the nth substance listed, in mol/kg
Conditions: 101 kPa, Liquid, Knauer vapor pressure osmometer

Cc1ccc(S(=O)(=O)[O-])cc1.[Na+] [sodium p-toluenesulfonate] + O
osmotic coefficient
Conditions	313.15 K	318.15 K	323.15 K
m1 = 0.02	0.985	0.98	0.968
m1 = 0.04	0.964	0.96	0.956
m1 = 0.06	0.944	0.941	0.939
m1 = 0.08	0.933	0.931	0.928
m1 = 0.1	0.921	0.92	0.916
m1 = 0.12	0.911	0.908	0.904
m1 = 0.14	0.902	0.898	0.894
m1 = 0.15	0.897	0.895	0.892
m1 = 0.16	0.891	0.888	0.885
m1 = 0.17	0.888	0.887	0.882
m1 = 0.2	0.867	0.864	0.86
m1 = 0.22	0.876	0.873	0.869
m1 = 0.3	0.839	0.836	0.831
m1 = 0.35	0.806	0.803	0.8
m1 = 0.4	0.771	0.76	0.755
m1 = 0.45	0.76	0.756	0.75
m1 = 0.5	0.75	0.743	0.739
m1 = 0.6	0.72	0.711	0.696
m1 = 0.7	0.71	0.685	0.676
m1 = 0.8	0.701	0.683	0.674
